Reference: US12662688B2, “Site-selective deuteration of amino acids through dual protein catalysis” (Wisconsin Alumni Research Foundation, priority 2022, dated 2026)
One block for each molecule: values may come before it.

What was measured:
DsaD [1] = target: T1, DsaD (Streptomyces scopuliridis, UniProt A0A0D5CCB2); test: Preparative-scale Cα-deuteration with DsaD clarified lysate in D2O; assay type: biochemical; settings: DsaD lysate only
Method: (§1) FIG. 5. ^1H NMR analysis of site-selective deuteration of L-Leu. Reaction conditions: 20 mM L-Leu 2.5% v/v DsaD clarified lysate, 2.5% v/v DsaE clarified lysate (when needed), 50 mM sodium phosphate (pD 8.4), 0.1 mM PLP, D2O (99.9% D).
(§2) FIG. 8. Preparative-scale and site-selective deuteration of amino acids. Conditions: 10-20 mM amino acid, 2.5% v/v DsaD clarified lysate, 2.5% v/v DsaE clarified lysate, 50 mM sodium phosphate (pD 8.4), 0.1 mM PLP, D2O (99.9%).
General procedure for milligram-scale biocatalytic deuteration: A 4-dram scintillation vial was charged with amino acid (10-20 mM final concentration), Na3PO4 buffer pD 8.4 (50 mM final concentration), PLP (100 μM final concentration), DsaD clarified cell lysate (2.5% v/v), DsaE clarified cell lysate (if applicable) (2.5% v/v), and D2O (or dH2O) to the appropriate final volume. The reaction vessel was placed in an incubator at 37° C. for 16 h. Reaction progress was monitored by UPLC-MS. After reaction completion, the reaction mixture was quenched with an equivalent volume of acetone and centrifuged (4,000 rpm, 10 min) to remove denatured protein. […] The product was then resuspended in a minimal quantity of water, transferred to a pre-weighed 20 mL vial, frozen, and lyophilized.

DsaD/E complex [2] = test: Analytical-scale Cα/Cβ H/D exchange with purified DsaD and DsaE; assay type: biochemical, Streptomyces scopuliridis; settings: 10 mM substrate, 5 μM DsaD, 50 μM DsaE (10:1), 37° C., 8 h
Method: FIGS. 3A-3C. Optimization of H/D exchange reactions and evaluation of the substrate scope. FIG. 3A. Optimization of Cβ-deuteration by increasing equivalents of partner protein DsaE. FIG. 3B. Evaluation of substrate scope of dual-protein-catalyzed Cα/Cβ deuteration under optimized conditions. FIG. 3C. UV-visible spectroscopy used to evaluate non-native substrate binding to DsaD. Reaction conditions: 10 mM amino acid substrate, 50 μM DsaE, 5 μM DsaD (10:1), 50 mM sodium phosphate (pD 8.4), 0.1 mM PLP, D2O, 37° C., 8 h. Reactions performed in duplicate, and percentage isotope incorporation is reported as the average of the replicates.
General procedure analytical scale deuteration reactions: α/β deuteration reactions were performed as follows. A 1 mL Eppendorf tube was charged with amino acid (10-20 mM final concentration), Na3PO4 buffer pD 8.4 (50 mM final concentration), PLP (100 μM final concentration), purified enzymes or appropriate lysate and D2O and to the appropriate final volume (typically 50 μL). Reactions were carried out at 37° C. for 8 h and quenched by the addition of 3 volumes of acetonitrile. Precipitated biomolecules were pelleted by centrifugation (16,000×g, 10 min) and samples were processed as described below.
(§3) Marfey's derivatization of analytical scale reactions: Derivatization of the resulting analytical scale product mixture (to increase overall signal and enable reverse phase chromatographic analysis) was achieved by treatment with Marfey's reagent^2 (1-fluoro-2-4-dinitrophenyl-5-L-alanine amide, L-FDAA) using the following protocol. 25 μL of quenched reaction mix (final amine concentration, 1.6 mM) was added to an Eppendorf tube with 50 μL of 15 mM NaHCO3 (final concentration, 5 mM) and 75 μL of 5 mM L-FDAA (final concentration, 2.5 mM). Derivatization reactions were carried out for 10-12 h before quenching with 150 μL of 60 mM HCl dissolved in acetonitrile. Final reaction analysis was carried out by UPLC-DAD-MS and quantitation as described below.
(§4) Quantitation of deuteration in analytical scale reactions: Deuteration reactions were analyzed by UPLC-DAD-MS with single ion recording (SIR) channels set to record a spectrum with the appropriate isotopic mass in positive mode. The area under the curve of recorded SIR peaks was obtained and normalized to account for natural isotopic abundance distributions (e.g. ^13C, ^15N, ^2H, ^34S, etc). Percent deuterium incorporation was calculated by the formula below. These measurements were carried out in an iterative fashion to measure Cα deuteration and Cβ deuteration.

DsaD/E system = test: Two-step Cα/Cβ deuteration then Cα deuterium washout with DsaD in H2O; assay type: biochemical, Streptomyces scopuliridis; settings: lower substrate loading (10 mM), after Cα washout
Method: (§5) General procedure for milligram-scale biocatalytic deuteration: A 4-dram scintillation vial was charged with amino acid (10-20 mM final concentration), Na3PO4 buffer pD 8.4 (50 mM final concentration), PLP (100 μM final concentration), DsaD clarified cell lysate (2.5% v/v), DsaE clarified cell lysate (if applicable) (2.5% v/v), and D2O (or dH2O) to the appropriate final volume. The reaction vessel was placed in an incubator at 37° C. for 16 h. Reaction progress was monitored by UPLC-MS. After reaction completion, the reaction mixture was quenched with an equivalent volume of acetone and centrifuged (4,000 rpm, 10 min) to remove denatured protein. Supernatant was transferred to a clean beaker, the decanted supernatant was concentrated to remove acetone by rotary evaporation and loaded onto a preparative reverse-phase C18 column pre-equilibrated with water. Purification was performed via gradient elution on an Isolera One Flash Purification system (Biotage). Fractions bearing product (confirmed by UPLC-MS sampling of fraction tubes) were pooled and dried by rotary evaporation. The product was then resuspended in a minimal quantity of water, transferred to a pre-weighed 20 mL vial, frozen, and lyophilized.
An initial reaction was performed with DsaD and DsaE to produce Cα,Cβ-deuterated L-Leu-2,3,3-d3 (25). Following reaction quenching with acetone, centrifugation to remove protein products, and removal of acetone and D2O via rotary evaporation, the dry crude product mixture was subjected to standard reaction conditions with DsaD in water. This reaction led to washout of the Cα deuterium, providing exclusively Cβ-deuterated L-Leu-3,3-d2 (44) with high levels of deuterium incorporation at Cβ (FIG. 5, 86% D incorporation and 98% ee). The site of H/D exchange in these reactions is dictated by the presence or absence of DsaE from the reaction conditions, enabling control of amino acid deuteration patterns.
We performed Cα/Cβ deuteration on a panel of amino acids, quenched the reactions and resubjected the crude product to Cα deuterium washout with DsaD in H2O. […]

DsaD/E complex [3] = test: Preparative-scale Cα/Cβ-deuteration with DsaD and DsaE clarified lysates in D2O; assay type: biochemical, Streptomyces scopuliridis
Method: as §1, §2, §5

DsaD/E complex [4] = test: Analytical-scale Cα/Cβ H/D exchange with purified DsaD and DsaE; assay type: biochemical, Streptomyces scopuliridis; settings: 1 mM Ile, 0.05 mol % DsaD and DsaE (1:1), D2O, 37° C., 8 h
DsaD/DsaE complex = DsaD/DsaE complex (Streptomyces scopuliridis, UniProt A0A0D5CCB2); test: Steady-state kinetic analysis of H/D exchange of L-Ile by DsaD with partner protein DsaE; assay type: biochemical
Method: (§6) FIGS. 2A-2E. Steady-state kinetic analysis of H/D exchange by the Ile epimerization system. FIG. 2A. Steady-state kinetic analysis describing Cβ-deuteration^a of L-Ile under varied equivalents of partner enzyme DsaE. FIG. 2B. Steady-state kinetic analysis of Cβ-deuteration rates^a at a constant 1 mM L-Ile, measured against increasing equivalents of DsaE. FIG. 2C. Steady-state kinetic analysis of Cα-deuteration^a of L-Ile in the presence and absence of partner protein DsaE. FIG. 2D. Proposed mechanism of selective deuterium incorporation at Cα and Cβ catalyzed by dual protein catalysis. FIG. 2E. UV-visible spectrum of DsaD in the absence and presence of L-Ile.^a Measurement of initial rates was performed in duplicate at 24° C. Conditions: 0.1-10 mM L-Ile, 3 μM DsaD, 50 mM sodium phosphate (pD 8.4), and 0.1 mM PLP in D2O (99.9%). Proteins were exchanged into a 50 mM sodium phosphate-D2O (pD 8.4) solution prior to reaction initiation to minimize proton contamination (<1% H2O). Following quench with MeCN, crude reaction products were subjected to functionalization with Marfey's reagent (L-FDAA) to enable analysis by reverse-phase chromatography and quantification of isotope incorporation by mass spectrometry.
as §3, §4
Kinetic analysis of biocatalytic L-Ile deuteration: Initial rates of α- or β-deuteration were obtained by means of end-point assay using the quantitation protocol for analytical scale reactions as described above. All reagents were prepared in D2O (99.9% D) and protein stocks were dialyzed (3 exchanges over 3 h at 4° C.) into 50 mM sodium phosphate buffer dissolved in D2O (pD 8.4) using a slide-a-lyzer device with a 3,000 Da cutoff. Reactions were performed at 25° C. in 1 mL Eppendorf tubes. Michaelis constants (KM) for α- and β-deuteration of L-Ile were determined using the concentration range of 0.1-10 mM L-Ile using 3 μM DsaD. Partner protein (DsaE) concentrations were consistent within each experiment and separate experiments were performed using varied equivalents of partner protein (0-50 equiv). Initial velocities were measures in duplicate or triplicate for at least 6 different substrate concentrations for each set of conditions tested. Measurements of the impact of partner protein (DsaE) concentration on the initial rate of β-deuteration were carried out using 1 mM L-Ile, 3 μM DsaD and varying DsaE concentrations between 3 μM-600 μM (1-200 equiv). Under the minimal proton contamination conditions of this assay (99.9% D2O), Cα and Cβ deuteration are assumed to have occurred without back transfer to proton. The data were fit using the Michaelis-Menten equation implemented in Prism.

DsaD [5] = target: T1, DsaD; test: H/D exchange of L-Ile with DsaD alone (steady-state kinetics); assay type: biochemical
Method: as §6, with “Conditions: 0.1-10 mM L-Ile, 3 μM DsaD, 50 mM sodium phosphate (pD 8.4), and 0.1 mM PLP in D2O (99.9%). Proteins were exchanged into a 50 mM sodium phosphate-D2O (pD 8.4) solution prior to reaction initiation to minimize proton contamination (<1% H2O).” left out
(§7) Kinetic analysis of biocatalytic L-Ile deuteration: Initial rates of α- or β-deuteration were obtained by means of end-point assay using the quantitation protocol for analytical scale reactions as described above. […] Michaelis constants (KM) for α- and β-deuteration of L-Ile were determined using the concentration range of 0.1-10 mM L-Ile using 3 μM DsaD. […]

DsaD [6] = target: T1, DsaD; test: UV-vis spectroscopy of amino acid binding to DsaD; settings: 20 μM DsaD, pH 8.0, 25° C.
Method: UV-Vis Spectroscopy: Data were collected between 600 and 300 nm on a UV-2600 Shimadzu spectrophotometer (Shimadzu, Kyoto, Japan) with a semi-micro quartz cuvette (Starna Cells, Atascadero, California, USA) at 25° C. DsaD stock solutions were diluted to 20 μM in 50 mM sodium phosphate pH 8.0. For observation of substrate binding, amino acids were added at concentrations ranging from 2.5-10 mM. Spectra from 600-300 nm were collected after a 2-minute incubation period. Amino acid stocks were prepared as 100 mM stocks in deionized water.

[7] = substrate: CC[C@H](C)[C@H](N)C(=O)O; test: H/D exchange of L-Ile with DsaD alone (steady-state kinetics); assay type: biochemical, Streptomyces scopuliridis; settings: other: DsaD alone; pH 8.4
Method: as §6, with “Conditions: 0.1-10 mM L-Ile, 3 μM DsaD, 50 mM sodium phosphate (pD 8.4), and 0.1 mM PLP in D2O (99.9%). Proteins were exchanged into a 50 mM sodium phosphate-D2O (pD 8.4) solution prior to reaction initiation to minimize proton contamination (<1% H2O).” left out
as §7

[8] = lower substrate loading (10 mM)

Sequence of DsaD/DsaE complex (A0A0D5CBB6 entry or part of it, one chain of several): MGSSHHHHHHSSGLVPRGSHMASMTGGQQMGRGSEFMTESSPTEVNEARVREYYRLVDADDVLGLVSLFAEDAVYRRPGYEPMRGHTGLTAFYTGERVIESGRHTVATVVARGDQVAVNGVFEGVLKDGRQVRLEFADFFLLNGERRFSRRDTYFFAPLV

- D incorporation at Cα (DsaD [1]): 95%
- ee (DsaD [1]): > 99 % ee
Molecule: [2H][C@](N)(CC(C)C)C(=O)O [L-Leu-2-d]

Molecule: N[C@@H](Cc1ccccc1)C(=O)O [Phe, phenylalanine]
- D-incorporation at Cα (DsaD/E complex [2]): high Cα deuteration
- D-incorporation at Cβ (DsaD/E complex [2]): 67%
- deuterium incorporation at Cβ (DsaD/E system): 91%

Molecule: N[C@@H](Cc1ccc(O)cc1)C(=O)O [Tyr, tyrosine]
- D-incorporation at Cα (DsaD/E complex [2]): 99%
- D-incorporation at Cβ (DsaD/E complex [2]): 27%
- deuterium incorporation at Cα (DsaD/E complex [3]; [8]): 95%
- deuterium incorporation at Cβ (DsaD/E complex [3]; [8]): 49%
- deuterium incorporation at Cβ (DsaD/E system): 40%

Molecule: CC[C@H](C)[C@H](N)C(=O)O [Ile, isoleucine]
- major product of H/D exchange (DsaD/E complex [4]): 1:1 mixture of d2-2,3-L-Ile and d2-2,3-L-allo-Ile
- deuteration at Cα (DsaD/E complex [3]; >600 mg scale): 95%
- deuteration at Cβ (DsaD/E complex [3]; >600 mg scale): 93%
- change of observed kcat or KM for Cα-deuteration (DsaD/DsaE complex; 150 μM DsaE (50:1 DsaE:DsaD)): did not significantly impact
- change of kcat of Cβ-deuteration (DsaD/DsaE complex; 5 equiv. of DsaE (5:1 DsaE:DsaD) vs one equivalent): did not significantly change
- decrease in observed KM of Cβ-deuteration (DsaD/DsaE complex; 5 equiv. vs one equivalent of DsaE): 11 fold
- increase in kcat of Cβ-deuteration (DsaD/DsaE complex; 50 equiv. of DsaE (50:1 DsaE:DsaD)): ~4 fold
- kcat of Cβ-deuteration (DsaD/DsaE complex; one equivalent of DsaE, 3 μM DsaD, D2O pD 8.4): 0.07 ± 0.007 s⁻¹
- kcat of Cα-deuteration (DsaD/DsaE complex; with DsaE bound): 0.75 ± 0.01 s⁻¹
- kcat of Cα exchange (DsaD [5]; DsaD alone): 1.04 ± 0.04 s⁻¹
- H/D exchange with just DsaD (DsaD [5]; excluding partner protein DsaE): a single H/D exchange event
- substrate binding to DsaD by UV-vis (DsaD [6]): appearance of a new absorbance band at 328 nm

B1: DsaD (Streptomyces scopuliridis) (protein)
chain: MGSSHHHHHHSSGLVPRGSHMASMTGGQQMGRGSEFMHIVTTPVARPLTAQERTERCAAPAFGTAFTEHMVSARWNPEQGWHDAELVPYGPLLLDPATVGLHYGQVVFEGLKAFRSHTGEVAVFRPDAHAERMRASARRLMMPEPPEELFLAAVDALVAQDQEWIPDDPGMSLYLRPILFASERTLALRPAREYRFLLVAFITEGYFGPAQRPVRVWVTDEYSRAAAGGTGAAKCAGNYAGSLLAQEEAQRKGCDQVVWLDPVERNWVEEMGGMNLFFVYEAGGSARLVTPPLTGSLLPGVTRDALLRLAPTLGVPVSEAPLSLEQWRADCASGAITEVFACGTAARISPVNEVSTKDGSWTIGAGAPAEGGVAAGEVTGRLSAALFGIQRGELPDSHSWMRPVSPARQSAIT
- Km [7]: 0.7 ± 0.1 mM
